Test results published in ChEMBL document CHEMBL4680263, “Identification of benzothiazinones containing 2-benzyl-2,7-diazaspiro[3.5]nonane moieties as new antitubercular agents” (Eur J Med Chem, 2020).

Experiments:
[1] = test system: Mycobacterium tuberculosis; assay: Antimycobacterial activity against multidrug resistance Mycobacterium tuberculosis 16995 clinical isolate assessed as inhibition of bacterial growth incubated for 7 days by MABA assay; format: functional; conditions: Mycobacterium tuberculosis, 16995, 168 h; time 7 day
[2] = test system: Mycobacterium tuberculosis; assay: Antimycobacterial activity against multidrug resistance Mycobacterium tuberculosis 16883 clinical isolate assessed as inhibition of bacterial growth incubated for 7 days by MABA assay; format: functional; conditions: Mycobacterium tuberculosis, 16883, 168 h; time 7 day

| Compound | MIC [1] [µg/mL] | MIC [2] [µg/mL] |
| --- | --- | --- |
| CC(c1ccc(Cl)cc1)N1CC2(CCN(c3nc(=O)c4cc(C(F)(F)F)cc([N+](=O)[O-])c4s3)CC2)C1 (centres undefined) | < 0.016 | < 0.016 |
| CC(c1ccc(Br)cc1)N1CC2(CCN(c3nc(=O)c4cc(C(F)(F)F)cc([N+](=O)[O-])c4s3)CC2)C1 (centres undefined) | < 0.016 | < 0.016 |
| CC(c1cc(F)cc(F)c1)N1CC2(CCN(c3nc(=O)c4cc(C(F)(F)F)cc([N+](=O)[O-])c4s3)CC2)C1 (centres undefined) | < 0.016 | < 0.016 |
| O=c1nc(N2CCC3(CC2)CN(Cc2cc(F)cc(F)c2)C3)sc2c([N+](=O)[O-])cc(C(F)(F)F)cc12 | < 0.016 | < 0.016 |
| CC(c1cccc(F)c1)N1CC2(CCN(c3nc(=O)c4cc(C(F)(F)F)cc([N+](=O)[O-])c4s3)CC2)C1 (centres undefined) | < 0.016 | < 0.016 |
| O=c1nc(N2CCC3(CC2)CN(Cc2ccc(C(F)(F)F)cc2)C3)sc2c([N+](=O)[O-])cc(C(F)(F)F)cc12 | < 0.016 | < 0.016 |
| CC(c1ccc(F)c(F)c1)N1CC2(CCN(c3nc(=O)c4cc(C(F)(F)F)cc([N+](=O)[O-])c4s3)CC2)C1 (centres undefined) | < 0.016 | < 0.016 |
| CC(c1ccc(F)cc1)N1CC2(CCN(c3nc(=O)c4cc(C(F)(F)F)cc([N+](=O)[O-])c4s3)CC2)C1 (centres undefined) | < 0.016 | < 0.016 |
| CC(c1ccc(Cl)c(F)c1)N1CC2(CCN(c3nc(=O)c4cc(C(F)(F)F)cc([N+](=O)[O-])c4s3)CC2)C1 (centres undefined) | < 0.016 | < 0.016 |
| CC(c1cc(F)c(F)c(F)c1)N1CC2(CCN(c3nc(=O)c4cc(C(F)(F)F)cc([N+](=O)[O-])c4s3)CC2)C1 (centres undefined) | < 0.016 | < 0.016 |
| O=c1nc(N2CCC3(CC2)CN(Cc2ccc(F)cc2)C3)sc2c([N+](=O)[O-])cc(C(F)(F)F)cc12 | < 0.016 | < 0.016 |
| O=c1nc(N2CCC3(CC2)CN(Cc2cccc(F)c2)C3)sc2c([N+](=O)[O-])cc(C(F)(F)F)cc12 | < 0.016 | < 0.016 |
| CC(c1ccc(OC(F)(F)F)cc1)N1CCC2(CC1)CN(c1nc(=O)c3cc(C(F)(F)F)cc([N+](=O)[O-])c3s1)C2 (centres undefined) | < 0.016 | < 0.016 |
| CC(c1ccc(F)c(Cl)c1)N1CC2(CCN(c3nc(=O)c4cc(C(F)(F)F)cc([N+](=O)[O-])c4s3)CC2)C1 (centres undefined) | < 0.016 | < 0.016 |
| CC(c1ccc(OC(F)(F)F)cc1)N1CC2(CCN(c3nc(=O)c4cc(C(F)(F)F)cc([N+](=O)[O-])c4s3)CC2)C1 (centres undefined) | < 0.016 | < 0.016 |
| O=c1nc(N2CCC3(CC2)CN(Cc2ccc(OC(F)(F)F)cc2)C3)sc2c([N+](=O)[O-])cc(C(F)(F)F)cc12 | < 0.016 | < 0.016 |
| CC(c1ccc(F)cc1F)N1CC2(CCN(c3nc(=O)c4cc(C(F)(F)F)cc([N+](=O)[O-])c4s3)CC2)C1 (centres undefined) | < 0.016 | < 0.016 |
| CC(c1ccc(C(F)(F)F)cc1)N1CC2(CCN(c3nc(=O)c4cc(C(F)(F)F)cc([N+](=O)[O-])c4s3)CC2)C1 (centres undefined) | < 0.016 | < 0.016 |
| O=c1nc(N2CCC3(CC2)CN(Cc2ccc(Br)cc2)C3)sc2c([N+](=O)[O-])cc(C(F)(F)F)cc12 | < 0.016 | < 0.016 |
| NNC(=O)c1ccncc1 [ISONIAZID] | > 10 | > 10 |
| O=c1nc(N2CCN(CC3CCCCC3)CC2)sc2c([N+](=O)[O-])cc(C(F)(F)F)cc12 [MACOZINONE] | < 0.016 | < 0.016 |
| CO[C@H]1/C=C/O[C@@]2(C)Oc3c(C)c(O)c4c(O)c(c(/C=N/N5CCN(C)CC5)c(O)c4c3C2=O)NC(=O)/C(C)=C\C=C\[C@H](C)[C@H](O)[C@@H](C)[C@@H](O)[C@@H](C)[C@H](OC(C)=O)[C@@H]1C [RIFAMPIN] | > 10 | > 10 |
